The values that follow come from patent US10144706B2 (BRISTOL-MYERS SQUIBB COMPANY, priority 2016, dated 2018).

T1 sequence (Q9NZQ7 with tags, fused parts or gaps): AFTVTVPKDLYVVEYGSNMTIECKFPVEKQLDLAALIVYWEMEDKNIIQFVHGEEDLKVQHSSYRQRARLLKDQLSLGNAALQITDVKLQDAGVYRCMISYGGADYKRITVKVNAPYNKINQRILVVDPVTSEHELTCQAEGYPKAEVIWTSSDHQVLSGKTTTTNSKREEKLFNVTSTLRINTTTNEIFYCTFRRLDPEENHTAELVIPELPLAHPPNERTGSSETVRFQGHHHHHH

One assay concerns the target T1, PD-1/PD-L1 interaction (PD-1-Ig / PD-L1-His) (Homo sapiens, UniProt Q9NZQ7).
T1 construct: hPDL1(18-239)-TVMV-His; TVMV protease site linker (C); made in house; host or cells: HEK293T
The experiment in a line: PD-1/PD-L1 Homogenous Time-Resolved Fluorescence (HTRF) binding assay. The following applies: IC50 range class; PD-L1-His 10 nM, PD-1-Ig 20 nM; read-out: Range or IC50. An excerpt:
The ability of the compounds of formula (I) to bind to PD-L1 was investigated using a PD-1/PD-L1 Homogenous Time-Resolved Fluorescence (HTRF) binding assay.
Homogenous Time-Resolved Fluorescence (HTRF) Binding Assay.
The interaction of PD-1 and PD-L1 can be assessed using soluble, purified preparations of the extracellular domains of the two proteins. The PD-1 and PD-L1 protein extracellular domains were expressed as fusion proteins with detection tags, for PD-1, the tag was the Fc portion of Immunoglobulin (PD-1-Ig) and for PD-L1 it was the 6 histidine motif (PD-L1-His). All binding studies were performed in an HTRF assay buffer consisting of dPBS supplemented with 0.1% […] bovine serum albumin and 0.05% (v/v) Tween-20. For the h/PD-L1-His binding assay, inhibitors were pre-incubated with PD-L1-His (10 nM final) for 15 m in 4 μl of assay buffer, followed by addition of PD-1-Ig (20 nM final) in 1 μl of assay buffer and further incubation for 15 m. HTRF detection was achieved using europium crypate-labeled anti-Ig (1 nM final) and allophycocyanin (APC) labeled anti-His (20 nM final). Antibodies were diluted in HTRF detection buffer and 5 μl was dispensed on top of the binding reaction. […] Additional binding assays were established between the human proteins PD-1-Ig/PD-L2-His (20 & 5 nM, respectively) and CD80-His/PD-L1-Ig (100 & 10 nM, respectively). […]
The IC50 is the point on the concentration scale where inhibition reaches its midpoint. As to `Cc1c(OCCCNCCc2cn(C)cn2)cccc1-c1cccc(OCCCN2CC[C@@H](O)C2)c1C` [Example 2043, (R)-1-(3-((2,2′-dimethyl-3′-(3-((2-(1-methyl-1H-imidazol-4-yl)ethyl)amino)propoxy)-[1,1′-biphenyl]-3-yl)oxy)propyl)pyrrolidin-3-ol], the IC50 lay in the range of 0.0901 to 1 µM. For the molecule `Cc1c(OCCCNCC2CCN(C)CC2)cccc1-c1cccc(OCCCN2CC[C@@H](O)C2)c1C` [Example 2044, (R)-1-(3-((2,2′-dimethyl-3′-(3-(((1-methylpiperidin-4-yl)methyl)amino)propoxy)-[1,1′-biphenyl]-3-yl)oxy)propyl)pyrrolidin-3-ol], the IC50 was in the range of 0.0901 to 1 µM. On the same count and under the same terms, to `Cc1c(OCCCNC[C@H](O)C(=O)O)cccc1-c1cccc(OCCCN2CC[C@@H](O)C2)c1C` [Example 2045, (S)-2-hydroxy-3-((3-((3′-(3-((R)-3-hydroxypyrrolidin-1-yl)propoxy)-2,2′-dimethyl-[1,1′-biphenyl]-3-yl)oxy)propyl)amino)propanoic acid] belongs 0.0901 to 1 µM; to `Cc1c(OCCCNCC(C)(C)CO)cccc1-c1cccc(OCCCN2CC[C@@H](O)C2)c1C` [Example 2046, (R)-1-(3-((3′-(3-((3-hydroxy-2,2-dimethylpropyl)amino)propoxy)-2,2′-dimethyl-[1,1′-biphenyl]-3-yl)oxy)propyl)pyrrolidin-3-ol], 0.0201 to 0.09 µM. Still for that read-out and setting: to `Cc1c(OCCCNC(CO)c2ccncc2)cccc1-c1cccc(OCCCN2CC[C@@H](O)C2)c1C` (stereo partly drawn) [Example 2047, (3R)-1-(3-((3′-(3-((2-hydroxy-1-(pyridin-4-yl)ethyl)amino)propoxy)-2,2′-dimethyl-[1,1′-biphenyl]-3-yl)oxy)propyl)pyrrolidin-3-ol] belongs 0.0901 to 1 µM; to `CC(=O)NCCNCCCOc1cccc(-c2cccc(OCCCN3CC[C@@H](O)C3)c2C)c1C` [Example 2048, (R)—N-(2-((3-((3′-(3-(3-hydroxypyrrolidin-1-yl)propoxy)-2,2′-dimethyl-[1,1′-biphenyl]-3-yl)oxy)propyl)amino)ethyl)acetamide], 0.0201 to 0.09 µM; to `Cc1c(OCCCN(C)Cc2cccnc2)cccc1-c1cccc(OCCCN2CC[C@@H](O)C2)c1C` [Example 2049, (R)-1-(3-((2,2′-dimethyl-3′-(3-(methyl(pyridin-3-ylmethyl)amino)propoxy)-[1,1′-biphenyl]-3-yl)oxy)propyl)pyrrolidin-3-ol], 0.0901 to 1 µM. In the case of `Cc1c(OCCCNCc2cccnc2)cccc1-c1cccc(OCCCN2CC[C@@H](O)C2)c1C` [Example 2050, (R)-1-(3-((2,2′-dimethyl-3′-(3-((pyridin-3-ylmethyl)amino)propoxy)-[1,1′-biphenyl]-3-yl)oxy)propyl)pyrrolidin-3-ol], the 50% inhibitory concentration (IC50) lay within 1 to 10 µM. Consider `Cc1c(OCCCNC[C@@H](O)CO)cccc1-c1cccc(OCCCN2CC[C@@H](O)C2)c1C` [Example 2052, (R)-3-((3-((3′-(3-((R)-3-hydroxypyrrolidin-1-yl)propoxy)-2,2′-dimethyl-[1,1′-biphenyl]-3-yl)oxy)propyl)amino)propane-1,2-diol], for which the IC50 lay within 0.0901 to 1 µM.

With `CCCN(CCO)CCCOc1cccc(-c2cccc(OCCCN3CC[C@@H](O)C3)c2C)c1C` [Example 2053, (R)-1-(3-((3′-(3-((2-hydroxyethyl)(propyl)amino)propoxy)-2,2′-dimethyl-[1,1′-biphenyl]-3-yl)oxy)propyl)pyrrolidin-3-ol], the IC50 fell in the range of 0.0901 to 1 µM. Still for that read-out and setting: to `Cc1c(OCCCN(C)CCC(N)=O)cccc1-c1cccc(OCCCN2CC[C@@H](O)C2)c1C` [Example 2054, (R)-3-((3-((3′-(3-(3-hydroxypyrrolidin-1-yl)propoxy)-2,2′-dimethyl-[1,1′-biphenyl]-3-yl)oxy)propyl)(methyl)amino)propanamide] belongs 0.0201 to 0.09 µM. Same read-out and setting: to `Cc1c(OCCCN[C@@H](CO)C(C)C)cccc1-c1cccc(OCCCN2CC[C@@H](O)C2)c1C` [Example 2055, (R)-1-(3-((3′-(3-(((R)-1-hydroxy-3-methylbutan-2-yl)amino)propoxy)-2,2′-dimethyl-[1,1′-biphenyl]-3-yl)oxy)propyl)pyrrolidin-3-ol] belongs 0.0901 to 1 µM; to `Cc1c(OCCCN[C@H](CO)c2ccccc2)cccc1-c1cccc(OCCCN2CC[C@@H](O)C2)c1C` [Example 2057, (R)-1-(3-((3′-(3-(((S)-2-hydroxy-1-phenylethyl)amino)propoxy)-2,2′-dimethyl-[1,1′-biphenyl]-3-yl)oxy)propyl)pyrrolidin-3-ol], 0.0901 to 1 µM. Take `Cc1c(OCCCN[C@H](CO)C(C)C)cccc1-c1cccc(OCCCN2CC[C@@H](O)C2)c1C` [Example 2058, (R)-1-(3-((3′-(3-(((S)-1-hydroxy-3-methylbutan-2-yl)amino)propoxy)-2,2′-dimethyl-[1,1′-biphenyl]-3-yl)oxy)propyl)pyrrolidin-3-ol]: the concentration for half-maximal inhibition (IC50) fell in the range of 0.0901 to 1 µM.

For the molecule `Cc1c(OCCCNCCn2cc(Cl)cn2)cccc1-c1cccc(OCCCN2CC[C@@H](O)C2)c1C` [Example 2060, (R)-1-(3-((3′-(3-((2-(4-chloro-1H-pyrazol-1-yl)ethyl)amino)propoxy)-2,2′-dimethyl-[1,1′-biphenyl]-3-yl)oxy)propyl)pyrrolidin-3-ol], the concentration for half-maximal inhibition (IC50) was in the range of 0.0201 to 0.09 µM. Still for that read-out and setting: to `Cc1c(OCCCNCCc2ncn(C)c2Cl)cccc1-c1cccc(OCCCN2CC[C@@H](O)C2)c1C` [Example 2061] belongs 0.0201 to 0.09 µM; to `Cc1c(OCCCN(C)Cc2ccccn2)cccc1-c1cccc(OCCCN2CC[C@@H](O)C2)c1C` [Example 2062, (R)-1-(3-((2,2′-dimethyl-3′-(3-(methyl(pyridin-2-ylmethyl)amino)propoxy)-[1,1′-biphenyl]-3-yl)oxy)propyl)pyrrolidin-3-ol], 0.0201 to 0.09 µM. The same measure, in the same setting: to `Cc1c(OCCCN2CCN(CCO)CC2)cccc1-c1cccc(OCCCN2CC[C@@H](O)C2)c1C` [Example 2063, (R)-1-(3-((3′-(3-(4-(2-hydroxyethyl)piperazin-1-yl)propoxy)-2,2′-dimethyl-[1,1′-biphenyl]-3-yl)oxy)propyl)pyrrolidin-3-ol] belongs 0.0201 to 0.09 µM; to `Cc1c(OCCCN(C)Cc2ccncc2)cccc1-c1cccc(OCCCN2CC[C@@H](O)C2)c1C` [Example 2064, (R)-1-(3-((2,2′-dimethyl-3′-(3-(methyl(pyridin-4-ylmethyl)amino)propoxy)-[1,1′-biphenyl]-3-yl)oxy)propyl)pyrrolidin-3-ol], 0.0201 to 0.09 µM. The same measure, in the same setting: the figure for `Cc1c(OCCCNCCc2ccc(N)cc2)cccc1-c1cccc(OCCCN2CC[C@@H](O)C2)c1C` [Example 2065, (R)-1-(3-((3′-(3-((4-aminophenethyl)amino)propoxy)-2,2′-dimethyl-[1,1′-biphenyl]-3-yl)oxy)propyl)pyrrolidin-3-ol] is 0.0201 to 0.09 µM; for `Cc1c(OCCCNC2CCN(C)CC2)cccc1-c1cccc(OCCCN2CC[C@@H](O)C2)c1C` [Example 2066, (R)-1-(3-((2,2′-dimethyl-3′-(3-((1-methylpiperidin-4-yl)amino)propoxy)-[1,1′-biphenyl]-3-yl)oxy)propyl)pyrrolidin-3-ol] it is 0.0901 to 1 µM; for `Cc1c(OCCCNC2CCN(CCO)CC2)cccc1-c1cccc(OCCCN2CC[C@@H](O)C2)c1C` [Example 2067, (R)-1-(3-((3′-(3-((1-(2-hydroxyethyl)piperidin-4-yl)amino)propoxy)-2,2′-dimethyl-[1,1′-biphenyl]-3-yl)oxy)propyl)pyrrolidin-3-ol] it is 0.0201 to 0.09 µM. `Cc1c(OCCCN(CCO)CCO)cccc1-c1cccc(OCCCN2CC[C@@H](O)C2)c1C` [Example 2068, (R)-2,2′-((3-((3′-(3-(3-hydroxypyrrolidin-1-yl)propoxy)-2,2′-dimethyl-[1,1′-biphenyl]-3-yl)oxy)propyl)azanediyl)bis(ethan-1-ol)]: the IC50 is 0.0901 to 1 µM. For the molecule `Cc1c(OCCCN[C@@H](CO)c2ccccc2)cccc1-c1cccc(OCCCN2CC[C@@H](O)C2)c1C` [Example 2069, (R)-1-(3-((3′-(3-(((R)-2-hydroxy-1-phenylethyl)amino)propoxy)-2,2′-dimethyl-[1,1′-biphenyl]-3-yl)oxy)propyl)pyrrolidin-3-ol], the IC50 is 0.0901 to 1 µM. `Cc1c(OCCCN2CCC(N(C)C)CC2)cccc1-c1cccc(OCCCN2CC[C@@H](O)C2)c1C` [Example 2070, (R)-1-(3-((3′-(3-(4-(dimethylamino)piperidin-1-yl)propoxy)-2,2′-dimethyl-[1,1′-biphenyl]-3-yl)oxy)propyl)pyrrolidin-3-ol]: the IC50 lay in the range of 0.0901 to 1 µM. On the same count and under the same terms, to `Cc1c(OCCCN[C@@H](CO)Cc2ncn(C)c2Cl)cccc1-c1cccc(OCCCN2CC[C@@H](O)C2)c1C` [Example 2071, (R)-1-(3-((3′-(3-(((R)-1-(5-chloro-1-methyl-1H-imidazol-4-yl)-3-hydroxypropan-2-yl)amino)propoxy)-2,2′-dimethyl-[1,1′-biphenyl]-3-yl)oxy)propyl)pyrrolidin-3-ol] belongs 0.0901 to 1 µM.

The same assay, now with this note: numeric IC50; PD-L1-His 10 nM, PD-1-Ig 20 nM; read-out: Range or IC50.
In the case of `Cc1c(OCCCN(Cc2ccccn2)Cc2ccccn2)cccc1-c1cccc(OCCCN2CC[C@@H](O)C2)c1C` [Example 2056, (R)-1-(3-((3′-(3-(bis(pyridin-2-ylmethyl)amino)propoxy)-2,2′-dimethyl-[1,1′-biphenyl]-3-yl)oxy)propyl)pyrrolidin-3-ol], the IC50 is 3.18 µM.
